Measured values published in the NIST ThermoML archive (doi:10.1016/j.jct.2016.02.001).

Experiment: mn = molality of the nth substance listed, in mol/kg
Conditions: for surface tension liquid-gas: Maximal bubble pressure; for mass density: 100 kPa, Liquid, Vibrating tube method

CC(=O)[O-].CCCCCCn1cc[n+](C)c1 [3-hexyl-1-methylimidazolium acetate] + O
Conditions | mass density [kg/m3] | surface tension liquid-gas [mN/m]
288.15 K, m1 = 0.0117 | 1000.09 | 73
288.15 K, m1 = 0.0162 | 1000.19 | 72.9
288.15 K, m1 = 0.0285 | 1000.4 | 72.7
288.15 K, m1 = 0.044 | 1000.58 | 72.2
288.15 K, m1 = 0.1102 | 1001.44 | 70.4
288.15 K, m1 = 0.1674 | 1002.13 | 68.9
288.15 K, m1 = 0.2233 | 1002.92 | 67.6
288.15 K, m1 = 0.2797 | 1003.61 | 66.3
288.15 K, m1 = 0.3357 | 1004.39 | 65.1
288.15 K, m1 = 0.3914 | 1005.11 | 63.7
288.15 K, m1 = 0.4475 | 1005.8 | 62.4
288.15 K, m1 = 0.5029 | 1006.52 | 61.4
293.15 K, m1 = 0.0117 | 999.03 | 72.3
293.15 K, m1 = 0.0162 | 999.15 | 72.2
293.15 K, m1 = 0.0285 | 999.32 | 71.9
293.15 K, m1 = 0.044 | 999.53 | 71.3
293.15 K, m1 = 0.1102 | 1000.29 | 69.6
293.15 K, m1 = 0.1674 | 1000.95 | 68.2
293.15 K, m1 = 0.2233 | 1001.64 | 67
293.15 K, m1 = 0.2797 | 1002.33 | 65.6
293.15 K, m1 = 0.3357 | 1003 | 64.4
293.15 K, m1 = 0.3914 | 1003.71 | 63
293.15 K, m1 = 0.4475 | 1004.46 | 61.7
293.15 K, m1 = 0.5029 | 1005.19 | 60.7
298.15 K, m1 = 0.0117 | 997.74 | 71.6
298.15 K, m1 = 0.0162 | 997.89 | 71.4
298.15 K, m1 = 0.0285 | 998.01 | 71.1
298.15 K, m1 = 0.044 | 998.25 | 70.6
298.15 K, m1 = 0.1102 | 998.91 | 69
298.15 K, m1 = 0.1674 | 999.59 | 67.5
298.15 K, m1 = 0.2233 | 1000.3 | 66.2
298.15 K, m1 = 0.2797 | 1001 | 64.8
298.15 K, m1 = 0.3357 | 1001.66 | 63.7
298.15 K, m1 = 0.3914 | 1002.34 | 62.4
298.15 K, m1 = 0.4475 | 1003.01 | 61.1
298.15 K, m1 = 0.5029 | 1003.64 | 60.2
303.15 K, m1 = 0.0117 | 996.24 | 70.7
303.15 K, m1 = 0.0162 | 996.35 | 70.6
303.15 K, m1 = 0.0285 | 996.49 | 70.3
303.15 K, m1 = 0.044 | 996.69 | 69.7
303.15 K, m1 = 0.1102 | 997.44 | 68.1
303.15 K, m1 = 0.1674 | 998.06 | 66.8
303.15 K, m1 = 0.2233 | 998.79 | 65.6
303.15 K, m1 = 0.2797 | 999.48 | 64.1
303.15 K, m1 = 0.3357 | 1000.14 | 62.9
303.15 K, m1 = 0.3914 | 1000.78 | 61.7
303.15 K, m1 = 0.4475 | 1001.42 | 60.5
303.15 K, m1 = 0.5029 | 1002.04 | 59.6
308.15 K, m1 = 0.0117 | 994.58 | 69.8
308.15 K, m1 = 0.0162 | 994.69 | 69.7
308.15 K, m1 = 0.0285 | 994.81 | 69.4
308.15 K, m1 = 0.044 | 994.99 | 68.9
308.15 K, m1 = 0.1102 | 995.81 | 67.5
308.15 K, m1 = 0.1674 | 996.43 | 65.9
308.15 K, m1 = 0.2233 | 997.08 | 64.7
308.15 K, m1 = 0.2797 | 997.72 | 63.4
308.15 K, m1 = 0.3357 | 998.39 | 62.2
308.15 K, m1 = 0.3914 | 999.02 | 61.1
308.15 K, m1 = 0.4475 | 999.65 | 59.9
308.15 K, m1 = 0.5029 | 1000.24 | 58.9
313.15 K, m1 = 0.0117 | 992.75 | 69
313.15 K, m1 = 0.0162 | 992.83 | 68.9
313.15 K, m1 = 0.0285 | 992.94 | 68.7
313.15 K, m1 = 0.044 | 993.11 | 68.2
313.15 K, m1 = 0.1102 | 993.86 | 66.6
313.15 K, m1 = 0.1674 | 994.56 | 65.3
313.15 K, m1 = 0.2233 | 995.21 | 64.1
313.15 K, m1 = 0.2797 | 995.84 | 62.8
313.15 K, m1 = 0.3357 | 996.49 | 61.7
313.15 K, m1 = 0.3914 | 997.12 | 60.5
313.15 K, m1 = 0.4475 | 997.73 | 59.2
313.15 K, m1 = 0.5029 | 998.32 | 58.2
318.15 K, m1 = 0.0117 | 990.75 | 68.2
318.15 K, m1 = 0.0162 | 990.81 | 68.1
318.15 K, m1 = 0.0285 | 990.95 | 67.9
318.15 K, m1 = 0.044 | 991.1 | 67.4
318.15 K, m1 = 0.1102 | 991.84 | 65.8
318.15 K, m1 = 0.1674 | 992.43 | 64.4
318.15 K, m1 = 0.2233 | 993.11 | 63.3
318.15 K, m1 = 0.2797 | 993.76 | 62.1
318.15 K, m1 = 0.3357 | 994.39 | 61
318.15 K, m1 = 0.3914 | 995 | 59.7
318.15 K, m1 = 0.4475 | 995.59 | 58.5
318.15 K, m1 = 0.5029 | 996.16 | 57.7
